Measured values taken from ChEMBL document CHEMBL3600356, “Optimization of permethyl ningalin B analogs as P-glycoprotein inhibitors” (Bioorg Med Chem, 2015).
Converted amounts (≈) assume the structure as drawn.

Columns and labels:
[1] = Cytotoxicity against human MDA435/LCC6MDR cells assessed as cell survival at 1 uM after 3 days by MTS/PMS assay; type: ADME, cell-based; settings: 72 h
Homo sapiens = species on record: Homo sapiens; assay: Modulation of p-glycoprotein in human MDA435/LCC6MDR cells assessed as ratio of IC50 for paclitaxel in absence of drug to IC50 for paclitaxel in presence of 1 uM of drug after 5 days by MTS assay; type: cell-based
[2] = Cytotoxicity against human MDA435/LCC6 cells assessed as cell survival at 1 uM after 3 days by MTS/PMS assay; type: cell-based; settings: mda-435/lcc6, 72 h
[3] = Solubility of the compound in phosphate buffer at pH 7.4 by capillary electrophoresis system; type: physicochemical

solubility [3] [µg/mL] | SMILES | Activity [1] | Ratio IC50 (Homo sapiens) | Activity [2]
 | COc1ccc(C2=C(c3ccc(OC)c(OC)c3)C(=O)N(C(=O)Nc3ccc4c(c3)C(=O)OC4)C2=O)cc1OC | Non-toxic | 1.1 | Non-toxic
 | COc1ccc(C2=C(c3ccc(OC)c(OC)c3)C(=O)N(C(=O)N3CCN(CC(=O)c4ccc(OCc5ccccc5)c(OC)c4)CC3)C2=O)cc1OC | Non-toxic | 5.4 | Non-toxic
 | COc1ccc(C2=C(c3ccc(OC)c(OC)c3)C(=O)N(CC(=O)c3cc(Br)c(OCc4ccccc4)cc3OCCO)C2=O)cc1OC | Non-toxic | 21.4 | Non-toxic
0.405 (≈ 0.664 µM) | COc1ccc(C2=C(c3ccc(OC)c(OC)c3)C(=O)N(C(=O)c3ccc(OCc4ccccc4)c(OC)c3)C2=O)cc1OC | Non-toxic |  | Non-toxic
 | CCCCC1OC(=O)c2cc(NC(=O)N3C(=O)C(c4ccc(OC)c(OC)c4)=C(c4ccc(OC)c(OC)c4)C3=O)ccc21 (stereo not drawn) | Non-toxic | 2.4 | Non-toxic
 | COc1ccc(C2=C(c3ccc(OC)c(OC)c3)C(=O)N(C(=O)N3CCN(CC(=O)c4ccc(S(C)(=O)=O)cc4)CC3)C2=O)cc1OC | Non-toxic | 1 | Non-toxic
